Common to all, as to format: cell-based
The target of one test is hKv1.3 (Homo sapiens, UniProt P22001). Kind of test: cell-based. The note with it: Kv1.3 (IWQ) IC50 (nM, Avg).
In test [1] the test system is IL-2 secretion from T cells in human whole blood. The note with it: read-out: WB (IL-2) IC50 (nM, Avg).
For test [2], the system named is IFN-g secretion from T cells in human whole blood.
The mark [3] stands for this setting: read-out: WB (IFNg) IC5- (nM, Avg).
Setting [4] is: read-out: WB (IFNg) IC50 (nM, Avg).

Where two headings read alike, the source gives them in different places.

Chain of hKv1.3 (P22001 whole entry): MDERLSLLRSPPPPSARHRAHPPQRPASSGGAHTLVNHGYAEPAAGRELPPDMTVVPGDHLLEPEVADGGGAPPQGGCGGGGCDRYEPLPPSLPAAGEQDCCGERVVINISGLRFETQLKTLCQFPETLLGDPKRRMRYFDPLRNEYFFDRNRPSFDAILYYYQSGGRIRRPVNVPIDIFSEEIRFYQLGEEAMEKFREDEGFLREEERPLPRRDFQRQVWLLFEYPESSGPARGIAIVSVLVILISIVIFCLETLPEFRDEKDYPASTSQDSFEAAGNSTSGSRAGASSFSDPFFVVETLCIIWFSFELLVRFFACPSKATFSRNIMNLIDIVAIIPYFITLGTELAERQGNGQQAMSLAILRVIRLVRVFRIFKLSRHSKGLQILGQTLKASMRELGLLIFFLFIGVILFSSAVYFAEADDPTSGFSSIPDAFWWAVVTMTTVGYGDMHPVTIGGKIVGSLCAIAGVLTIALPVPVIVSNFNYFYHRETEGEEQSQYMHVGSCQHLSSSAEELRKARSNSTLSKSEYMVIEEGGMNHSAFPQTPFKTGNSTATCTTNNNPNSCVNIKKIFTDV

As for `CC[C@H](C)[C@@H]1NC(=O)[C@@H](NC(=O)[C@H](CO)NC(=O)[C@@H](N)CCCNC(=N)N)CSSC[C@@H](C(=O)O)NC(=O)[C@H]([C@@H](C)O)NC(=O)CNC(=O)[C@@H]2CSSC[C@@H]3NC(=O)[C@H](CCC(N)=O)NC(=O)[C@H](Cc4ccccc4)NC(=O)[C@H](C)NC(=O)[C@H]([C@@H](C)O)NC(=O)[C@H](CSSC[C@H](NC(=O)[C@H](Cc4ccccc4)NC(=O)[C@H](CO)NC(=O)[C@H](CC(C)C)NC(=O)[C@H](CCCNC(=N)N)NC(=O)[C@H](Cc4ccc(O)cc4)NC(=O)[C@H](CCCCN)NC(=O)[C@H](CCSC)NC(=O)[C@H](CO)NC(=O)[C@H](Cc4c[nH]cn4)NC(=O)[C@H](CCCCN)NC3=O)C(=O)N[C@@H](CCCNC(=N)N)C(=O)N[C@@H](CCCCN)C(=O)N[C@@H]([C@@H](C)O)C(=O)N2)NC(=O)[C@H](CCCNC(=N)N)NC(=O)[C@H](CCC(=O)O)NC(=O)[C@H](CCCCN)NC(=O)[C@@H]2CCCN2C(=O)[C@H]([C@@H](C)CC)NC(=O)[C@H]([C@@H](C)O)NC(=O)[C@H](CC(=O)O)NC1=O` [[Glu10]ShK], the IC50 came out at 0.134 nM at hKv1.3, 0.023 nM in test [1] and 0.055 nM in test [2] (setting [3]).
For `CC[C@H](C)[C@@H]1NC(=O)[C@@H](NC(=O)[C@H](CO)NC(=O)[C@@H](N)CCCNC(=N)N)CSSC[C@@H](C(=O)O)NC(=O)[C@H]([C@@H](C)O)NC(=O)CNC(=O)[C@@H]2CSSC[C@@H]3NC(=O)[C@H](CCC(N)=O)NC(=O)[C@H](Cc4ccccc4)NC(=O)[C@H](C)NC(=O)[C@H]([C@@H](C)O)NC(=O)[C@H](CSSC[C@H](NC(=O)[C@H](Cc4ccccc4)NC(=O)[C@H](CO)NC(=O)[C@H](CC(C)C)NC(=O)[C@H](CCCNC(=N)N)NC(=O)[C@H](Cc4ccc(O)cc4)NC(=O)[C@H](CCCCN)NC(=O)[C@H](CCSC)NC(=O)[C@H](CO)NC(=O)[C@H](Cc4c[nH]cn4)NC(=O)[C@H](CCCCN)NC3=O)C(=O)N[C@@H](CCCNC(=N)N)C(=O)N[C@@H](CCCCN)C(=O)N[C@@H]([C@@H](C)O)C(=O)N2)NC(=O)[C@H](CCC(=O)O)NC(=O)[C@H](CO)NC(=O)[C@H](CCCCN)NC(=O)[C@@H]2CCCN2C(=O)[C@H]([C@@H](C)CC)NC(=O)[C@H]([C@@H](C)O)NC(=O)[C@H](CC(=O)O)NC1=O` [[Glu11]ShK], in that order: 0.969 nM, 1.32 nM and 4.54 nM.
For the compound `CC[C@H](C)[C@@H]1NC(=O)[C@@H](NC(=O)[C@H](CO)NC(=O)[C@@H](N)CCCNC(=N)N)CSSC[C@@H](C(=O)O)NC(=O)[C@H]([C@@H](C)O)NC(=O)CNC(=O)[C@@H]2CSSC[C@@H]3NC(=O)[C@H](CCC(N)=O)NC(=O)[C@H](Cc4ccccc4)NC(=O)[C@H](C)NC(=O)[C@H](CCC(=O)O)NC(=O)[C@H](CSSC[C@H](NC(=O)[C@H](Cc4ccccc4)NC(=O)[C@H](CO)NC(=O)[C@H](CC(C)C)NC(=O)[C@H](CCCNC(=N)N)NC(=O)[C@H](Cc4ccc(O)cc4)NC(=O)[C@H](CCCCN)NC(=O)[C@H](CCSC)NC(=O)[C@H](CO)NC(=O)[C@H](Cc4c[nH]cn4)NC(=O)[C@H](CCCCN)NC3=O)C(=O)N[C@@H](CCCNC(=N)N)C(=O)N[C@@H](CCCCN)C(=O)N[C@@H]([C@@H](C)O)C(=O)N2)NC(=O)[C@H](CCCNC(=N)N)NC(=O)[C@H](CO)NC(=O)[C@H](CCCCN)NC(=O)[C@@H]2CCCN2C(=O)[C@H]([C@@H](C)CC)NC(=O)[C@H]([C@@H](C)O)NC(=O)[C@H](CC(=O)O)NC1=O` [[Glu13]ShK], the figures for the IC50 (against hKv1.3; in test [1]; in test [2] (setting [3])) were 0.157 nM, 0.785 nM and 1.1 nM, respectively.
For `CC[C@H](C)[C@@H]1NC(=O)[C@@H](NC(=O)[C@H](CO)NC(=O)[C@@H](N)CCCNC(=N)N)CSSC[C@@H](C(=O)O)NC(=O)[C@H]([C@@H](C)O)NC(=O)CNC(=O)[C@@H]2CSSC[C@@H]3NC(=O)[C@H](CCC(N)=O)NC(=O)[C@H](CCC(=O)O)NC(=O)[C@H](C)NC(=O)[C@H]([C@@H](C)O)NC(=O)[C@H](CSSC[C@H](NC(=O)[C@H](Cc4ccccc4)NC(=O)[C@H](CO)NC(=O)[C@H](CC(C)C)NC(=O)[C@H](CCCNC(=N)N)NC(=O)[C@H](Cc4ccc(O)cc4)NC(=O)[C@H](CCCCN)NC(=O)[C@H](CCSC)NC(=O)[C@H](CO)NC(=O)[C@H](Cc4c[nH]cn4)NC(=O)[C@H](CCCCN)NC3=O)C(=O)N[C@@H](CCCNC(=N)N)C(=O)N[C@@H](CCCCN)C(=O)N[C@@H]([C@@H](C)O)C(=O)N2)NC(=O)[C@H](CCCNC(=N)N)NC(=O)[C@H](CO)NC(=O)[C@H](CCCCN)NC(=O)[C@@H]2CCCN2C(=O)[C@H]([C@@H](C)CC)NC(=O)[C@H]([C@@H](C)O)NC(=O)[C@H](CC(=O)O)NC1=O` [[Glu15]ShK], the IC50 at hKv1.3 was found to be 0.266 nM; in test [1], 0.312 nM; in test [2] (setting [3]) it was 0.575 nM.
For `CC[C@H](C)[C@@H]1NC(=O)[C@@H](NC(=O)[C@H](CO)NC(=O)[C@@H](N)CCCNC(=N)N)CSSC[C@@H](C(=O)O)NC(=O)[C@H]([C@@H](C)O)NC(=O)CNC(=O)[C@@H]2CSSC[C@@H]3NC(=O)[C@H](CCC(=O)O)NC(=O)[C@H](Cc4ccccc4)NC(=O)[C@H](C)NC(=O)[C@H]([C@@H](C)O)NC(=O)[C@H](CSSC[C@H](NC(=O)[C@H](Cc4ccccc4)NC(=O)[C@H](CO)NC(=O)[C@H](CC(C)C)NC(=O)[C@H](CCCNC(=N)N)NC(=O)[C@H](Cc4ccc(O)cc4)NC(=O)[C@H](CCCCN)NC(=O)[C@H](CCSC)NC(=O)[C@H](CO)NC(=O)[C@H](Cc4c[nH]cn4)NC(=O)[C@H](CCCCN)NC3=O)C(=O)N[C@@H](CCCNC(=N)N)C(=O)N[C@@H](CCCCN)C(=O)N[C@@H]([C@@H](C)O)C(=O)N2)NC(=O)[C@H](CCCNC(=N)N)NC(=O)[C@H](CO)NC(=O)[C@H](CCCCN)NC(=O)[C@@H]2CCCN2C(=O)[C@H]([C@@H](C)CC)NC(=O)[C@H]([C@@H](C)O)NC(=O)[C@H](CC(=O)O)NC1=O` [[Glu16]ShK], in that order: 0.206 nM, 0.351 nM and 0.373 nM.
Regarding `CCCC[C@@H]1NC(=O)[C@H](CO)NC(=O)[C@H](Cc2c[nH]cn2)NC(=O)[C@H](CCC(=O)O)NC(=O)[C@@H]2CSSC[C@@H]3NC(=O)[C@H]([C@@H](C)O)NC(=O)[C@H](CCCNC(=N)N)NC(=O)[C@H](CCCNC(=N)N)NC(=O)[C@H](CSSC[C@H](NC(=O)[C@H](CCCNC(=N)N)NC(=O)[C@H](CO)NC(=O)[C@H](CCCCN)NC(=O)[C@@H]4CCCN4C(=O)[C@H]([C@@H](C)CC)NC(=O)[C@H]([C@@H](C)O)NC(=O)[C@H](CC(=O)O)NC(=O)[C@H]([C@@H](C)CC)NC(=O)[C@@H](NC(=O)[C@H](CO)NC(=O)[C@@H](N)CCCNC(=N)N)CSSC[C@@H](C(N)=O)NC(=O)[C@H]([C@@H](C)O)NC(=O)CNC3=O)C(=O)N[C@@H]([C@@H](C)O)C(=O)N[C@@H](C)C(=O)N[C@@H](Cc3ccccc3)C(=O)N[C@@H](CCCCN)C(=O)N2)NC(=O)[C@H](Cc2ccccc2)NC(=O)[C@H](CO)NC(=O)[C@H](CC(C)C)NC(=O)[C@H](CCCNC(=N)N)NC(=O)[C@H](Cc2ccc(O)cc2)NC(=O)[C@H](CCCCN)NC1=O` [[Glu18, Lys16, Nle21,Arg30]ShK-amide], the IC50 was found to be 0.226 nM against hKv1.3, 1.22 nM in test [1] and 0.969 nM in test [2] (setting [4]).
For `CCCC[C@@H]1NC(=O)[C@H](CO)NC(=O)[C@H](Cc2c[nH]cn2)NC(=O)[C@H](CCC(=O)O)NC(=O)[C@@H]2CSSC[C@@H]3NC(=O)[C@H]([C@@H](C)O)NC(=O)[C@H](CCCCN)NC(=O)[C@H](CCCNC(=N)N)NC(=O)[C@H](CSSC[C@H](NC(=O)[C@H](CCCNC(=N)N)NC(=O)[C@H](CO)NC(=O)[C@H](CCCCN)NC(=O)[C@@H]4CCCN4C(=O)[C@H]([C@@H](C)CC)NC(=O)[C@H]([C@@H](C)O)NC(=O)[C@H](CC(=O)O)NC(=O)[C@H]([C@@H](C)CC)NC(=O)[C@@H](NC(=O)[C@H](CO)NC(=O)[C@@H](N)CCCNC(=N)N)CSSC[C@@H](C(N)=O)NC(=O)[C@H]([C@@H](C)O)NC(=O)CNC3=O)C(=O)N[C@@H]([C@@H](C)O)C(=O)N[C@@H](C)C(=O)N[C@@H](C)C(=O)N[C@@H](CCCCN)C(=O)N2)NC(=O)[C@H](Cc2ccccc2)NC(=O)[C@H](CO)NC(=O)[C@H](CC(C)C)NC(=O)[C@H](CCCNC(=N)N)NC(=O)[C@H](Cc2ccc(O)cc2)NC(=O)[C@H](CCCCN)NC1=O` [[Glu18,Ala15,Lys16,Nle21]ShK-amide], the IC50 at hKv1.3 worked out at 0.202 nM; in test [1], 1.35 nM; in test [2] (setting [4]) it was 1.29 nM.
In the case of `CC[C@H](C)[C@@H]1NC(=O)[C@@H](NC(=O)[C@H](CO)NC(=O)[C@@H](N)CCCNC(=N)N)CSSC[C@@H](C(=O)O)NC(=O)[C@H]([C@@H](C)O)NC(=O)CNC(=O)[C@@H]2CSSC[C@@H]3NC(=O)[C@H](CCC(N)=O)NC(=O)[C@H](Cc4ccccc4)NC(=O)[C@H](C)NC(=O)[C@H]([C@@H](C)O)NC(=O)[C@H](CSSC[C@H](NC(=O)[C@H](Cc4ccccc4)NC(=O)[C@H](CO)NC(=O)[C@H](CC(C)C)NC(=O)[C@H](CCCNC(=N)N)NC(=O)[C@H](Cc4ccc(O)cc4)NC(=O)[C@H](CCCCN)NC(=O)[C@H](CCSC)NC(=O)[C@H](CO)NC(=O)[C@H](Cc4c[nH]cn4)NC(=O)[C@H](CCC(=O)O)NC3=O)C(=O)N[C@@H](CCCNC(=N)N)C(=O)N[C@@H](CCCCN)C(=O)N[C@@H]([C@@H](C)O)C(=O)N2)NC(=O)[C@H](CCCNC(=N)N)NC(=O)[C@H](CO)NC(=O)[C@H](CCCCN)NC(=O)[C@@H]2CCCN2C(=O)[C@H]([C@@H](C)CC)NC(=O)[C@H]([C@@H](C)O)NC(=O)[C@H](CC(=O)O)NC1=O` [[Glu18]ShK], the IC50 against hKv1.3 was found to be 0.117 nM; in test [1], 0.047 nM; in test [2] (setting [3]), 0.083 nM.

(Values after patent publication US20120121591A1 (priority 2009, published 2012).)
